# From patent publication US20070043036A1, “2-Pyridone derivatives as neutrophil elastase inhibitors and their use” (priority 2003, published 2007)
# Target: T1, Human Neutrophil Elastase (HNE) (Homo sapiens, UniProt P08246)
# T1 construct: Human Neutrophil Elastase (HNE) purified from serum; purchased Calbiochem 324681; host or cells: natural source; printed as 'purified from serum'
# T1 sequence (P08246 30-247 limits assumed): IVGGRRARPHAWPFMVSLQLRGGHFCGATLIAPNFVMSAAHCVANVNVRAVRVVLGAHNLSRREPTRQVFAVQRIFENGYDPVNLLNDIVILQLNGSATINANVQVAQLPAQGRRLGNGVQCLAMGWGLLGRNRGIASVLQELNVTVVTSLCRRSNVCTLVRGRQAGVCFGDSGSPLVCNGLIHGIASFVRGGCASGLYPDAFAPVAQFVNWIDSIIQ
# Assay: Human Neutrophil Elastase Quenched-FRET Assay
# Assay type: biochemical
# Settings: HNE purified from serum; substrate MeOSuc-AAPV-AMC; 15 min pre-incubation, 30 min incubation at room temperature; read-out: Inhibition of Human Neutrophil Elastase IC50
# Procedure: Human Neutrophil Elastase Quenched-FRET Assay
# The assay uses Human Neutrophil Elastase (HNE) purified from serum (Calbiochem art. 324681; Ref. Baugh, R. J. et al., 1976, Biochemistry. 15, 836-841). HNE was stored in as 50 mM NaOAc, 200 mM NaCl, pH 5.5 with added 30% glycerol at −20° C. The protease substrate used was Elastase Substrate V Fluorogenic, MeOSuc-AAPV-AMC (Calbiochem art. 324740; Ref. Castillo, M. J. et al., 1979, Anal. Biochem. 99, 53-64). The substrate was stored in DMSO at −20° C. The assay additions were as follows: Test compounds and controls were added to black 96-well flat-bottom plates (Greiner 655076), 1 μL in 100% DMSO, followed by 30 μL HNE in assay buffer with 0.01% TritonX-100. The assay buffer constitution was: 100 mM Tris (pH 7.5) and 500 mM NaCl. The enzyme and the compounds were incubated at room temperature for 15 minutes. Then 30 μl substrate in assay buffer was added. The assay was stopped after 30 minutes incubation at room temperature by adding 60 μl stop solution (140 mM acetic acid, 200 mM sodium monochloroacetate, 60 mM sodium acetate, pH 4.3). Fluorescence was measured on a Wallac 1420 Victor 2 instrument at settings: Excitation 380 nm, Emission 460 nm. IC50 values were determined using Xlfit curve fitting using model 205.
row,IC50 [nM],SMILES
1,83,"Cc1c(CCc2cccnc2)cc(C(=O)NCc2ccc(S(C)(=O)=O)cc2)c(=O)n1-c1cccc(C(F)(F)F)c1 [Example 8, 6-Methyl-N-[4-(methylsulfonyl)benzyl]-2-oxo-5-(2-pyridin-3-ylethyl)-1-[3-(trifluoromethyl)phenyl]-1,2-dihydropyridine-3-carboxamide]"
2,48,"CCCN(C)C(=O)c1cc(C(=O)NCc2ccc(S(C)(=O)=O)cc2)c(=O)n(-c2cccc(C(F)(F)F)c2)c1C [Example 16, 6-Methyl-2-oxo-1-(3-trifluoromethyl-phenyl)-1,2-dihydro-pyridine-3,5-dicarboxylic acid 3-(4-methanesulfonyl-benzylamide)5-(methyl-propyl-amide)]"
3,99,"Cc1c(C(=O)N2CCC[C@@H]2CO)cc(C(=O)NCc2ccc(S(C)(=O)=O)cc2)c(=O)n1-c1cccc(C(F)(F)F)c1 [Example 19, 5-((2R)-2-Hydroxymethyl-pyrrolidine-1-carbonyl)-6-methyl-2-oxo-1-(3-trifluoromethyl-phenyl)-1,2-dihydro-pyridine-3-carboxylic acid 3-(4-methanesulfonyl-benzylamide)]"
4,51,"Cc1c(CNCC2CC2)cc(C(=O)NCc2ccc(S(C)(=O)=O)cc2)c(=O)n1-c1cccc(C(F)(F)F)c1 [Example 58, 5-{[(Cyclopropylmethyl)amino]methyl}-6-methyl-N-[4-(methylsulfonyl)benzyl]-2-oxo-1-[3-(trifluoromethyl)phenyl]-1,2-dihydropyridine-3-carboxamide]"
5,22,"Cc1c(OCCO)cc(C(=O)NCc2ccc(S(C)(=O)=O)cc2)c(=O)n1-c1cccc(C(F)(F)F)c1 [Example 66, 5-(2-Hydroxyethoxy)-6-methyl-N-[4-(methylsulfonyl)benzyl]-2-oxo-1-[3-(trifluoromethyl)phenyl]-1,2-dihydropyridine-3-carboxamide]"
